Data reported in patent US20050085457A1, “Therapeutic quinolone compounds with 5-ht-antagonistic properties” (priority 2001, published 2005).

Tested on: Hartley guinea pigs
Assay: learned helplessness test in guinea pigs
Assay type: in vivo
Conditions: guinea pig
Excerpt: The utility of the compounds for example to treat depression may be shown via a learned helplessness test in guinea pigs, which is used extensively as correlative to antidepressant activity in humans. The learned helplessness test may be carried out as follows: Seventy male Hartley guinea pigs, each weighing about 350-425 gm are fed ad lib, and are housed under a 12-hour light/dark cycle. The procedure consists of two phases: The induction phase and the avoidance-training phase. In the induction phase, subjects are placed into standard shuttle cages (20 L×16 W×21 centimeters H) which are fitted with a grid floor. Electrical stimulation (1.25 mA, 10 sec duration) is delivered to the floor of the cage every 90-sec during 1 hour daily sessions. Subjects have no opportunity to escape or to avoid shocks. Induction is conducted for 2 consecutive days.
In avoidance training, testing is also conducted in the shuttle cages, except that the subjects are not returned to the same chamber in which induction had occurred. Additionally, all cages are fitted with a partition with an arch in the center of the cage, through which animals can pass between the left and right halves of the cage. The procedure employed is a standard shuttle avoidance procedure in which a compound, conditioned stimulus (a 10-sec presentation of a tone and turning on of a lamp on the side of the cage that the guinea pig was occupying) serves to indicate presentation of electrical current to the floor of the cage. Shock is presented for a 5 sec period, 5 sec after initiation of the conditioned stimulus. Entry into the opposite side of the shuttle cage via the arched partition prior to shock onset results in the end of the trial (avoidance response). If shock is delivered, entry into the opposite side of the cage results in termination of the shock and CS (escape). Reversal of learned helplessness in the induction subjects correlates to antidepressant activity of the test compound.
Avoidance training, 45-min in duration, is conducted on 2 consecutive days, beginning 48 hr after the final induction session. Seventy subjects are assigned to 1 of 6 groups of 11-12 animals. The groups are as follows: • 1) No induction group. The subjects are placed into the shuttle cages but are not given inescapable shock, the animals are subsequently trained in the avoidance procedure and the vehicle is administered; • 2) Induction vehicle control group; • 3) Imipramine 17.8 mg/kg; • 4) 0.3 mg/kg compounds; • 5) 1 mg/kg compounds; and • 6) 5 mg/kg compounds.
Groups 2-6 are given induction and avoidance training sessions. Injections are administered immediately following induction sessions and 1 hour prior to avoidance training sessions. […]

SMILES | activity in the learned helplessness assay for antidepressant/antianxiety activity
COc1cc(N2CCN(C)CC2)c2oc(C(=O)Nc3ccc(N4CCOCC4)cc3)cc(=O)c2c1 [Example 31, 6-Methoxy-8-(4-methyl-piperazin-1-yl)-4-oxo-4H-chromene-2-carboxylic acid (4-morpholin-4-yl-phenyl)-amide] | demonstrate activity
CCS(=O)(=O)N1CCN(c2ccc(NC(=O)c3cc(=O)c4cc(F)cc(N5CCN(C)CC5)c4o3)cc2)CC1 [Example 71, 6-Fluoro-8-(4-methyl-piperazin-1-yl)-4-oxo-4H-chromene-2-carboxylic Acid [4-(4-ethane sulfonyl-piperazin-1-yl)-phenyl]-amide] | demonstrate activity
CCC(=O)N1CCN(c2ccc(NC(=O)c3cc(=O)c4cc(F)cc(N5CCN(C)CC5)c4o3)cc2)CC1 [Example 72, 6-Fluoro-8-(4-methyl-piperazin-1-yl)-4-oxo-4H-chromene-2-carboxylic acid [4-(4-propionyl-piperazin-1-yl)-phenyl]-amide] | demonstrate activity
CCC(=O)N1CCN(c2ccc(NC(=O)c3cc(=O)c4cc(OC)cc(N5CCN(C)CC5)c4o3)cc2)CC1 [Example 44, 6-Methoxy-8-(4-methyl-piperazin-1-yl)-4-oxo-4H-chromene-2-carboxylic Acid [4-(4-propionyl-piperazin-1-yl)-phenyl]-amide] | demonstrate activity

Biological target: 5-HT1B and 5HT1D receptors
Assay: not given
Conditions: guinea pig cortex membranes; "may result in a measurement of"; assay of Roberts et al.; read-out: Kd of the radioligand (saturation studies); cited from earlier work

SMILES | Kd
COc1ccc(NC(=O)c2ccc(-c3ccncc3)c(C)c2)cc1N1CCN(C)CC1 [[^3H]-GR125743] | 0.046 ± 0.004 nM

Tested on: not given
Assay: not given
Conditions: not given

SMILES | melting point
COc1cc(N2CCN(C)CC2)c2oc(C(=O)Nc3ccc(N4CCOCC4)cc3)cc(=O)c2c1 [Example 31, 6-Methoxy-8-(4-methyl-piperazin-1-yl)-4-oxo-4H-chromene-2-carboxylic acid (4-morpholin-4-yl-phenyl)-amide] | 234 to 236 °C
CN1CCN(c2cccc3c2OC(C(=O)Nc2ccc(N4CCOCC4)cc2)CC3=O)CC1 (single isomer, unassigned) [Example 80, 8-(4-Methyl-piperazin-1-yl)-4-oxo-chroman-2-carboxylic Acid (4-morpholin-4-yl-phenyl)-amide (Slower Running Isomer)] | 215 °C (dec.)
CCS(=O)(=O)N1CCN(c2ccc(NC(=O)c3cc(=O)c4cc(F)cc(N5CCN(C)CC5)c4o3)cc2)CC1 [Example 71, 6-Fluoro-8-(4-methyl-piperazin-1-yl)-4-oxo-4H-chromene-2-carboxylic Acid [4-(4-ethane sulfonyl-piperazin-1-yl)-phenyl]-amide] | 233 to 234 °C
CN1CCN(c2cccc3c2OC(C(=O)Nc2ccc(N4CCOCC4)cc2)CC3)CC1 (single isomer, unassigned; (+)) [Example 76, (+)-8-(4-Methyl-piperazin-1-yl)-chroman-2-carboxylic Acid (4-morpholin-4-yl-phenyl)-amide] | 206 to 207 °C
CN1CCN(c2cccc3c2OC(C(=O)Nc2ccc(N4CCOCC4)cc2)CC3)CC1 (racemic) [Example 75, racemic-8-(4-Methyl-piperazin-1-yl)-chroman-2-carboxylic Acid (4-morpholin-4-yl-phenyl)-amide] | 215 to 216 °C
CCNC(=O)N1CCN(c2ccc(NC(=O)c3cc(=O)c4cc(F)cc(N5CCN(C)CC5)c4o3)cc2)CC1 [Example 81, 4-[4-({1-[6-Fluoro-8-(4-methyl-piperazin-1-yl)-4-oxo-4H-chromen-2-yl]-methanoyl}-amino)-phenyl]-piperazine-1-carboxylic Acid Ethylamide] | 236 to 238 °C
CN1CCN(c2cccc3c(=O)cc(C(=O)Nc4ccc(N5CCOCC5)cc4)oc23)CC1 [Example 1, 8-(4-methyl-1-piperazinyl)-N-[4-(4-morpholinyl)phenyl]-4-oxo-4H-chromene-2-carboxamide] | 217 to 218 °C (dec.)
CN1CCN(c2cccc3c(=O)cc(C(=O)Nc4ccc(N5CCOCC5)cc4O)oc23)CC1 [Example 22, 8-(4-Methyl-piperazin-1-yl)-4-oxo-4H-chromene-2-carboxylic Acid (2-hydroxy-4-morpholin-4-yl-phenyl)-amide] | 248.4 to 249.6 °C
CN1CCN(c2cccc3c(=O)cc(-c4nc5ccc(N6CCOCC6)cc5o4)oc23)CC1 [Example 21, 8-(4-Methyl-piperazin-1-yl)-2-(6-morpholin-4-yl-benzooxazol-2-yl)-chromen-4-one] | 158.1 to 158.8 °C
CN1CCN(c2cccc3c2OC(C(=O)Nc2ccc(N4CCOCC4)cc2)CC3=O)CC1 (single isomer, unassigned) [Example 79, 8-(4-Methyl-piperazin-1-yl)-4-oxo-chroman-2-carboxylic acid (4-morpholin-4-yl-phenyl)-amide (Faster Running Isomer)] | 216 °C (dec.)
CN1CCN(c2cccc3c2OC(C(=O)Nc2ccc(N4CCOCC4)cc2)CC3=O)CC1 (racemic) [Example 78, racemic-8-(4-methyl-piperazin-1-yl)-4-oxo-chroman-2-carboxylic Acid (4-morpholin-4-yl-phenyl)-amide] | 215 to 216 °C
CN1CCN(c2cc(F)cc3c(=O)cc(C(=O)Nc4ccc(N5CCN(C(=O)CCO)CC5)cc4)oc23)CC1 [Example 73, 6-Fluoro-8-(4-methyl-piperazin-1-yl)-4-oxo-4H-chromene-2-carboxylic acid {4-[4-(3-hydroxy-propanoyl)-piperazin-1-yl]-phenyl}-amide] | 195 to 199 °C
CN1CCN(c2cccc3c(=O)cc(C(=O)N(C)c4ccc(N5CCOCC5)cc4)oc23)CC1 [Example 25, 8-(4-Methylpiperazin-1-yl)-4-oxo-4H-chromene-2-carboxylic Acid methyl-(4-morpholin-4-yl-phenyl)amide] | 245 to 246.8 °C
COc1cc(N2CCN(C)CC2)c2oc(C(=O)Nc3ccc(N4CCN(C(=O)CCO)CC4)cc3)cc(=O)c2c1 [Example 68, 6-Methoxy-8-(4-methyl-piperazin-1-yl)-4-oxo-4H-chromene-2-carboxylic acid {4-[4-(3-hydroxy-propanoyl)-piperazin-1-yl]-phenyl}-amide] | 195 to 197 °C
CN1CCN(c2cccc3c2OC(C(=O)Nc2ccc(N4CCOCC4)cc2)CC3)CC1 (single isomer, unassigned; (-)) [Example 77, (−)-8-(4-Methyl-piperazin-1-yl)-chroman-2-carboxylic acid (4-morpholin-4-yl-phenyl)-amide] | 205.5 to 207 °C
